We go through 21 molecules from US11479546B2, “Antimalarial hexahydropyrimidine analogues” (UCB Biopharma SRL, priority 2018, dated 2022).

The IC50 is the concentration that gives 50% inhibition.

The subject of the first experiment is Plasmodium falciparum 3D7. Kind of experiment: P. falciparum 3D7 asexual blood stage assay, Assay Procedure Version 1 (SYBR green readout). Type of experiment: cell-based. Conditions: 3D7, Erythrocyte, Version 1 of the assay procedure (no asterisk), 72 h incubation in infected erythrocytes, 10,000 nM to 0.51 nM. As for the experimental part: Asexual Blood Stage Assay
The assay used to measure the effect of test compounds on a bloodstream stage of Plasmodium falciparum 3D7 strain employs SYBR green as the readout. This is a dye that binds to double stranded deoxyribonucleic acid (DNA) with a resulting increase in fluorescence, allowing detection of P. falciparum DNA in infected erythrocytes, and thereby providing a measure of parasite growth and propagation.
P. falciparum Culture Maintenance
Erythrocytes (A+blood) were prepared for both parasite culture and assay by washing 4 times with incomplete media (15.9 g RPMI 1640 (25 mM HEPES, L-glutamine), 1 g NaHCO3, 2 g glucose, 400 μL gentacin (500 mg/mL), 2 mL hypoxanthine solution (13.6 g/L in 0.1M NaOH pH 7.3) in 1 litre of media). The cells were centrifuged at 1800 g for 5 minutes, before decanting the supernatant and re-suspending in fresh incomplete media. On the final wash, the cells were re-suspended in complete media (incomplete media with 5 g/L AlbumaxII), and centrifuged at 1800 g for 3 minutes. This cell sediment was treated as 100% haematocrit.
P. falciparum 3D7 was cultured in erythrocytes at 5% haematocrit in complete media at 37° C. (1% O2, 3% CO2, balance N2). Cultures were split on a weekly basis to achieve a 1% parasitaemia in erythrocites at 5% haematocrit in fresh media. Culture media is replaced by fresh media every other day (2 times during the week).
Assay Procedure—Version 1
On day 1, test compounds were added to assay plates using Echo dispensing technology (3 fold dilution and 10 points titration). 50 nL of each compound dilution was added to 50 μL of culture (5% haematocrit, 0.5% parasitaemia) and incubated for 72 h at 37° C. (1% O2, 3% CO2, balance N2). Final concentrations of test compounds ranged from 10,000 nM to 0.51 nM, in […].
On day 4, 10 μL SYBR green (Invitrogen S7563 supplied as 10,000×concentrate in DMSO) pre-diluted to 3× concentrate with Lysis buffer (20 mM Tris pH 7.9, 5% EDTA, 0.16% w/v, 1.6% TX100 v/v) was added to the cultures and incubated in the dark, overnight, at room temperature.
On day 5, fluorescent signal was measured using a BioTek plate reader (excitation 485 nm, emission 528 nm). All data were processed using IDBS ActivityBase. Raw data were converted into percent inhibition through linear regression by setting the high inhibition control as 100% and the no inhibition control as 0%. Quality control criteria for passing plates were as follows: Z′>0.5, S:B>3, % CV(no inhibition control)<15. The formula used to calculate Z′ is
All EC50 curve fitting was undertaken using the following 4 parametric equation:
[formula] where A=% inhibition at bottom; B=% inhibition at top; C=EC50; D=slope; x=inhibitor concentration; and y=% inhibition. […] Assay Procedure—Version 2
`C[C@@]1(c2cccc(Nc3ccc(F)cc3)c2Cl)CC(=O)N([C@H]2C[C@@H]3CC[C@H]2O3)C(=N)N1` (racemic) [Example 188, (6S)-6-[2-Chloro-3-(4-fluoro-anilino)phenyl]-2-imino-6-methyl-3-[(1RS,2SR,4SR)-7-oxabicyclo[2.2.1]heptan-3-yl]-hexahydropyrimidin-4-one] registered an IC50 of 3460 nM. With `C[C@@]1(c2cccc(Nc3ccccc3)c2Cl)CC(=O)N([C@H]2CCOC2)C(=N)N1` (relative stereo) [Example 5, (6S)-6-(3-Anilino-2-chloro-phenyl)-2-imino-6-methyl-3-[(3S or 3R*)-tetrahydrofuran-3-yl]hexahydropyrimidin-4-one], the IC50 worked out at 120 nM.

In turn, `C[C@@]1(c2cccc(Nc3ccccc3)c2Cl)CC(=O)N([C@@H]2CCOC2)C(=N)N1` (relative stereo) [Example 6, (6S)-6-(3-Anilino-2-chloro-phenyl)-2-imino-6-methyl-3-[(3S or 3R*)-tetrahydrofuran-3-yl]hexahydropyrimidin-4-one] gave an IC50 of 70 nM. Molecule `C[C@@]1(c2cccc(Nc3ccc(F)cc3)c2Cl)CC(=O)N([C@@H]2CCOC2)C(=N)N1` (relative stereo) [Example 169, (6S)-6-[2-Chloro-3-(4-fluoro-anilino)phenyl]-2-imino-6-methyl-3-[(3R*)-tetrahydro-furan-3-yl]hexahydropyrimidin-4-one] registered an IC50 of 323 nM. In the case of `C[C@@]1(c2cccc(Nc3ccc(F)cc3)c2Cl)CC(=O)N([C@@H]2CCCOC2)C(=N)N1` (relative stereo) [Example 190, (6S)-6-[2-Chloro-3-(4-fluoro-anilino)phenyl]-2-imino-6-methyl-3-[(3R* or 3S)-tetrahydropyran-3-yl]-hexahydropyrimidin-4-one], the IC50 is 2580 nM.

The next experiment relates to Plasmodium falciparum 3D7. Kind of experiment: P. falciparum 3D7 asexual blood stage assay, Assay Procedure Version 2 (SYBR green readout). The class given is cell-based. The conditions noted are these: Plasmodium falciparum, 3D7, Erythrocyte, 72 h, Version 2 of the assay procedure (asterisk *); 72 h incubation in infected erythrocytes; 50,000 nM to 15 nM. The gist of the method:
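Parasite growth read as DNA fluorescence (SYBR green lysis overnight, ex 485/em 528 nm) after 72 h drug exposure of 3D7-infected erythrocytes at 0.5% parasitaemia, 5% haematocrit, 37 °C under 1% O2/3% CO2. Compounds tested 15–50,000 nM final, 0.5% DMSO; normalised to mefloquine (100%) and DMSO (0%), biphasic two-site EC50 fitting.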
For `Cc1ccc(Nc2cccc([C@]3(C)CC(=O)N([C@H]4C[C@@](O)(C(F)(F)F)C4)C(=N)N3)c2Cl)cn1` [Example 153, (6S)-6-{2-Chloro-3-[(6-methyl-pyridin-3-yl)amino]phenyl}-3-[3-hydroxy-3-(trifluoromethyl)-cyclobutyl]-2-imino-6-methyl-hexahydropyrimidin-4-one (trans isomer)], half-maximal inhibition (IC50) required 3220 nM. In the case of `C[C@@]1(c2cccc(Nc3ccc(C4CC4)nc3)c2Cl)CC(=O)N([C@H]2C[C@](O)(C(F)(F)F)C2)C(=N)N1` [Example 154, (6S)-6-{2-Chloro-3-[(6-cyclo-propylpyridin-3-yl)amino]-phenyl}-3-[3-hydroxy-3-(trifluoromethyl)cyclobutyl]-2-imino-6-methylhexahydro-pyrimidin-4-one (cis isomer)], the midpoint of inhibition, the IC50, lay at 884 nM. `C[C@@]1(c2cccc(Nc3ccc(C(F)(F)F)cc3)c2Cl)CC(=O)N([C@H]2C[C@@](C)(O)C2)C(=N)N1` [Example 174, (6S)-6-{2-Chloro-3-[4-(trifluoromethyl)anilino]-phenyl}-3-(3-hydroxy-3-methyl-cyclobutyl)-2-imino-6-methyl-hexahydropyrimidin-4-one]: the IC50 amounted to 764 nM.

Regarding `C[C@@]1(c2cccc(Nc3ccc(Cl)cc3)c2Cl)CC(=O)N([C@H]2C[C@@](C)(O)C2)C(=N)N1` [Example 176, (6S)-6-[2-Chloro-3-(4-chloro-anilino)phenyl]-3-(3-hydroxy-3-methylcyclobutyl)-2-imino-6-methylhexahydropyrimidin-4-one], the IC50 is 460 nM. In the case of `CC[C@]1(O)C[C@H](N2C(=N)N[C@](C)(c3cccc(Nc4ccc(F)cc4)c3Cl)CC2=O)C1` [Example 177, (6S)-6-[2-Chloro-3-(4-fluoro-anilino)phenyl]-3-(3-ethyl-3-hydroxycyclobutyl)-2-imino-6-methylhexahydropyrimidin-4-one (trans isomer)], the IC50 came to 2450 nM. This IC50 is about 5.3-fold higher than that of the molecule before. Still for that read-out and setting: the result for `CC[C@]1(O)C[C@@H](N2C(=N)N[C@](C)(c3cccc(Nc4ccc(F)cc4)c3Cl)CC2=O)C1` [Example 178, (6S)-6-[2-Chloro-3-(4-fluoro-anilino)phenyl]-3-(3-ethyl-3-hydroxycyclobutyl)-2-imino-6-methylhexahydropyrimidin-4-one (cis isomer)] reads 428 nM; that for `C[C@@]1(c2cccc(Nc3ccc(F)cc3)c2Cl)CC(=O)N(C2CC(O)(C(F)(F)F)C2)C(=N)N1` [Example 179, (6S)-6-[2-Chloro-3-(4-fluoro-anilino)phenyl]-3-[3-hydroxy-3-(trifluoromethyl)cyclobutyl]-2-imino-6-methyl-hexahydro-pyrimidin-4-one (cis isomer)], 381 nM.

In turn, `C[C@@]1(c2cccc(Nc3ccc(Cl)cn3)c2Cl)CC(=O)N(C2CCOCC2)C(=N)N1` [Example 182, (6S)-6-{2-Chloro-3-[(5-chloro-pyridin-2-yl)amino]phenyl}-2-imino-6-methyl-3-(tetrahydro-yran-4-yl)-hexahydropyrimidin-4-one] returned an IC50 of 466 nM. The IC50 values of the last two molecules are within 1.5-fold of each other.

With `C[C@@]1(c2cccc(Nc3ccc(C#N)cn3)c2Cl)CC(=O)N(C2CCOCC2)C(=N)N1` [Example 183, 6-{2-Chloro-3-[(4S)-2-imino-4-methyl-6-oxo-1-(tetrahydro-pyran-4-yl)hexahydropyrimidin-4-yl]anilino}pyridine-3-carbo-nitrile], it took 582 nM to reach half-maximal inhibition (IC50). Same read-out and setting: the result for `C[C@@]1(c2cccc(Nc3ncccc3C#N)c2Cl)CC(=O)N(C2CCOCC2)C(=N)N1` [Example 184, 2-{2-Chloro-3-[(4S)-2-imino-4-methyl-6-oxo-1-(tetrahydro-pyran-4-yl)hexahydropyrimidin-4-yl]anilino}pyridine-3-carbo-nitrile] reads 217 nM. On the same count and under the same terms, the result for `C[C@@]1(c2cccc(Nc3cnc4ccccn34)c2Cl)CC(=O)N(C2CCOCC2)C(=N)N1` [Example 185, (6S)-6-[2-Chloro-3-(imidazo-[1,2-a]pyridin-3-ylamino)-phenyl]-2-imino-6-methyl-3-(tetrahydropyran-4-yl)-hexahydropyrimidin-4-one] reads 565 nM; that for `Cc1nn(-c2ccccc2)c(C)c1Nc1cccc([C@]2(C)CC(=O)N(C3CCOCC3)C(=N)N2)c1Cl` [Example 186, (6S)-6-{2-Chloro-3-[(3,5-dimethyl-1-phenylpyrazol-4-yl)-amino]phenyl}-2-imino-6-methyl-3-(tetrahydropyran-4-yl)hexahydropyrimidin-4-one], 456 nM. Same read-out and setting: the result for `C[C@@]1(c2cccc(Nc3ncc4ccccn34)c2Cl)CC(=O)N(C2CCOCC2)C(=N)N1` [Example 187, (6S)-6-[2-Chloro-3-(imidazo-[1,5-a]pyridin-3-ylamino)-phenyl]-2-imino-6-methyl-3-(tetrahydropyran-4-yl)-hexahydropyrimidin-4-one] reads 385 nM; that for `C[C@@]1(c2cccc(Nc3ccc(C4CC4)nn3)c2Cl)CC(=O)N(C2CCOCC2)C(=N)N1` [Example 197, (6S)-6-{2-Chloro-3-[(6-cyclo-propylpyridazin-3-yl)amino]-phenyl}-2-imino-6-methyl-3-(tetrahydropyran-4-yl)-hexahydropyrimidin-4-one], 536 nM.

Staying with this experiment, now noted: Version 2 of the assay procedure (asterisk *); 72 h incubation in infected erythrocytes; 50,000 nM to 15 nM.
In turn, `CC1(C#N)CC(N2C(=N)N[C@](C)(c3cccc(Nc4ccc(F)cc4)c3Cl)CC2=O)C1` [Example 180, 3-{(4S)-4-[2-Chloro-3-(4-fluoroanilino)phenyl]-2-imino-4-methyl-6-oxohexahydro-pyrimidin-1-yl}-1-methyl-cyclobutanecarbonitrile (trans isomer)] gave an IC50 of 629 nM. In turn, `CC1(C#N)CC(N2C(=N)N[C@](C)(c3cccc(Nc4ccc(F)cc4)c3Cl)CC2=O)C1` [Example 181, 3-{(4S)-4-[2-Chloro-3-(4-fluoroanilino)phenyl]-2-imino-4-methyl-6-oxohexahydro-pyrimidin-1-yl}-1-methyl-cyclobutanecarbonitrile (cis isomer)] gave an IC50 of 201 nM. This IC50 is about 3.1-fold lower than that of the molecule before.
